According to patent publication US12606561B2, “Substituted pyrazolo[1,5-a][1,3,5]triazines as CDK inhibitors” (QURIENT CO., LTD., priority 2018, dated 2026):

Experiments:
[1] = target: T1, CDK1/Cyclin B (Homo sapiens, UniProt P06493); experiment: Enzymatic assay for CDK1 (LANCE Ultra kinase assay, FRET based); assay type: biochemical; settings: ATP at Km; read-out: CDK1 enzymatic activity IC50
T1 construct: purchased Invitrogen PR4768C
Summary of the method: (§1)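 Kinase activity of each purified CDK/cyclin complex was followed in a FRET format where a Europium anti-phospho-antibody recognises phosphorylated ULight-labeled peptide. ATP was held at its Km.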

[2] = target: T2, CDK2/Cyclin A (Homo sapiens, UniProt P24941); experiment: Enzymatic assay for CDK2 (LANCE Ultra kinase assay, FRET based); assay type: biochemical; settings: ATP at Km
T2 construct: purchased Invitrogen PV6290
Summary of the method: (§2)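 Inhibition was measured at ATP Km with 68 nM ULight-MBP peptide and CDK2/Cyclin A ([…]) or CDK5/p25 ([…]), using 8-dose 4-fold compound dilutions from DMSO. Kinase reaction ran 60 min at 23° C, then Eu anti-phospho-MBP plus EDTA were added for another 60 min before the fluorescence read.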

[3] = target: T3, CDK5/p25 (Homo sapiens, UniProt Q00535); experiment: Enzymatic assay for CDK5 (LANCE Ultra kinase assay, FRET based); assay type: biochemical; settings: ATP at Km
T3 construct: purchased Invitrogen PR8543B
Summary of the method: as §2

[4] = target: T4, CDK7/Cyclin H/MNAT1 (Homo sapiens, UniProt P50613); experiment: Enzymatic assay for CDK7 (LANCE Ultra kinase assay, FRET based); assay type: biochemical; settings: for IC50: ATP at Km
T4 construct: purchased Invitrogen PR6749B
Summary of the method: as §1

[5] = test system: MV4-11; experiment: Cellular MV4-11 viability assay (CellTiter-Glo, 72 hours); assay type: cell-based; settings: Homo sapiens; MV4-11 cells
Summary of the method: (§3)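 Each line was plated at its own density (1×10^4, 5×10^3 and 1×10^3 cells/well for MV4-11, OVCAR-3 and A2780 respectively) in RPMI-1640 with 10% FBS. Treatment with compound, 0.0015 uM to 10 uM and DMSO under 0.1%, lasted 72 h. Surviving cells were quantified by CellTiter-Glo.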

[6] = test system: A2780; experiment: A2780 viability assay (CellTiter-Glo, 72 hours); assay type: cell-based; settings: Homo sapiens; A2780 cells
Summary of the method: as §3

[7] = test system: OVCAR-3; experiment: OVCAR-3 viability assay (CellTiter-Glo, 72 hours); assay type: cell-based; settings: Homo sapiens; OVCAR-3 cells
Summary of the method: as §3

T3 sequence (Q00535 whole entry): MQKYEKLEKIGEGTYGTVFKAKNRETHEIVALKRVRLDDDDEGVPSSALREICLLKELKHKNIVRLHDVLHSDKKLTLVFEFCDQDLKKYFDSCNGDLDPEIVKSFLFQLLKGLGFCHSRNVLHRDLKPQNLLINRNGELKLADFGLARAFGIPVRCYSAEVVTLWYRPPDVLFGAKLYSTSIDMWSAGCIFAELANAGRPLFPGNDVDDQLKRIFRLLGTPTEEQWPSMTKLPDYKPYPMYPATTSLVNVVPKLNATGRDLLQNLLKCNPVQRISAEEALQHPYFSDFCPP
T3 sequence (Q15078 99-307 partner limits assumed): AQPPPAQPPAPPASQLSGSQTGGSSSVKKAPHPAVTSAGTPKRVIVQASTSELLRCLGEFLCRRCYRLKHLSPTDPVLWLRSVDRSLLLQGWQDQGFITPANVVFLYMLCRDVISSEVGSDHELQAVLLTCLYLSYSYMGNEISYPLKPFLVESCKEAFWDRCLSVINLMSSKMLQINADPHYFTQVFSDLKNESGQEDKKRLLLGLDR
T4 sequence (P50613 whole entry): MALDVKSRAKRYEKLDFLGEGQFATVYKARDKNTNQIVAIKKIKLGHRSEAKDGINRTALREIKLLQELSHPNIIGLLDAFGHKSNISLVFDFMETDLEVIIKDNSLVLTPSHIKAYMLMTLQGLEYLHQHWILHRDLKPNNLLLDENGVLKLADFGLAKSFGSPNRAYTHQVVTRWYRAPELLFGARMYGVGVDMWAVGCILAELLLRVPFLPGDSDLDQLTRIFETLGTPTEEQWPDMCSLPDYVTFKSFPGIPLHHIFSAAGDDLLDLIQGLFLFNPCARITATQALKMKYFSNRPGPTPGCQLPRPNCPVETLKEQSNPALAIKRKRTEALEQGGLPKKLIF
T4 sequence (P51946 whole entry partner): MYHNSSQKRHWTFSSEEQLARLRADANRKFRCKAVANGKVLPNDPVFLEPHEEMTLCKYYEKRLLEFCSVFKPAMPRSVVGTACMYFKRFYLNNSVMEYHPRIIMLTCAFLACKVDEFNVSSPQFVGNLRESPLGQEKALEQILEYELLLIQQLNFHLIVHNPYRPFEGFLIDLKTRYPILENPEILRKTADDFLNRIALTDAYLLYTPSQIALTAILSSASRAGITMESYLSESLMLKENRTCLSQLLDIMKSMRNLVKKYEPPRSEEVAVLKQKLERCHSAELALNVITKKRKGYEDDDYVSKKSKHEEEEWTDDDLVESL
T4 sequence (P51948 whole entry partner): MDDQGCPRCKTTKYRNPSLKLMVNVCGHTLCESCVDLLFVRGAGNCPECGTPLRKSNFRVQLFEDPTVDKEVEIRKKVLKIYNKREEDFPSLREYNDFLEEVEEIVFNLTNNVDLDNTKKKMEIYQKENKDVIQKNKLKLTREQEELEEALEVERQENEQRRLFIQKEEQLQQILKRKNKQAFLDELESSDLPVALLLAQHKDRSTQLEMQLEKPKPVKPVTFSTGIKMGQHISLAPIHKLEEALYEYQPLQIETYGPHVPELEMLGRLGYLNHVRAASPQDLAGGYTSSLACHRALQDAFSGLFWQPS
T1 sequence (P06493 whole entry): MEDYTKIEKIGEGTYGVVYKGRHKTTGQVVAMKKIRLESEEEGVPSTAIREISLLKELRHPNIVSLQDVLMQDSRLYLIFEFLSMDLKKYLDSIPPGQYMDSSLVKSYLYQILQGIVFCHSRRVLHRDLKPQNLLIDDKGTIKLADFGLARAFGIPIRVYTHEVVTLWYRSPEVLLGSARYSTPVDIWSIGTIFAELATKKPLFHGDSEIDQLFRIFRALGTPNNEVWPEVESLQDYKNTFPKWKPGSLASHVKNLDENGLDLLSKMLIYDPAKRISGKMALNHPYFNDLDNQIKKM
T1 sequence (P14635 whole entry partner): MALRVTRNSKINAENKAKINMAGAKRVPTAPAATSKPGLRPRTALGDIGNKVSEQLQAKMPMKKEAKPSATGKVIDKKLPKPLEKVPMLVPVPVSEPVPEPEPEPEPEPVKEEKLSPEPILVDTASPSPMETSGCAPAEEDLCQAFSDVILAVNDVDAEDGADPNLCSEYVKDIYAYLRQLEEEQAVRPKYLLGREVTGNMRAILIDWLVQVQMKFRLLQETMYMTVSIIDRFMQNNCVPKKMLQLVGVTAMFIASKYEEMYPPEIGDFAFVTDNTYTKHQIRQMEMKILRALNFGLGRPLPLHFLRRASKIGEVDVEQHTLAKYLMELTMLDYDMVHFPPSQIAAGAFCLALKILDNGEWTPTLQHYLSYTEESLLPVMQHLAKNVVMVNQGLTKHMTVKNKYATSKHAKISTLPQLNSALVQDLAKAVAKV

| IC50 [1] [nM] | IC50 [2] [nM] | IC50 [3] [nM] | IC50 [4] [nM] | CDK1/CDK7: Selectivity of CDK7 inhibition over CDK1 inhibition [4] | CDK2/CDK7: Selectivity of CDK7 inhibition over CDK2 inhibition [4] | CDK5/CDK7: Selectivity of CDK7 inhibition over CDK5 inhibition [4] | IC50 [5] [nM] | IC50 [6] [nM] | IC50 [7] [nM] | SMILES |
| --- | --- | --- | --- | --- | --- | --- | --- | --- | --- | --- |
| > 1000 | > 1000 | > 1000 | < 100 | A (A indicates [fold] > 500) | A (A indicates [fold] > 500) | A (A indicates [fold] > 500) | < 1000 | 1000 to 10000 | 1000 to 10000 | CC(C)c1cnn2c(NCc3ccccc3-c3nccc4cc(NC(=O)/C=C/CN(C)CC(N)=O)ccc34)nc(N3CCC(N)CC3)nc12 [Compound 58] |
| > 1000 | > 1000 | > 1000 | < 100 | A (A indicates [fold] > 500) | A (A indicates [fold] > 500) | A (A indicates [fold] > 500) | < 1000 | < 1000 | < 1000 | CC(C)c1cnn2c(NCc3ccccc3-c3nccc4cc(NC(=O)/C=C/CN(C)C)ccc34)nc(N3CCNCC3)nc12 [Compound 59] |
| > 1000 | > 1000 | > 1000 | < 100 | A (A indicates [fold] > 500) | A (A indicates [fold] > 500) | A (A indicates [fold] > 500) | < 1000 | < 1000 | < 1000 | C=CC(=O)Nc1ccc2c(-c3ccccc3CNc3nc(NC[C@H]4CCNC[C@@H]4O)nc4c(C(C)C)cnn34)nccc2c1 [Compound 60] |
| > 1000 | > 1000 | > 1000 | < 100 | A (A indicates [fold] > 500) | A (A indicates [fold] > 500) | A (A indicates [fold] > 500) | < 1000 | < 1000 | < 1000 | COC1CCN(c2nc(NCc3ccccc3-c3nccc4cc(NC(=O)/C=C/CN(C)C)ccc34)n3ncc(C(C)C)c3n2)CC1 [Compound 61] |
| > 1000 | > 1000 | > 1000 | < 100 | A (A indicates [fold] > 500) | A (A indicates [fold] > 500) | A (A indicates [fold] > 500) | < 1000 | 1000 to 10000 | 1000 to 10000 | CC(C)c1cnn2c(NCc3ccccc3-c3nccc4cc(NC(=O)/C=C/CN(C)C)ccc34)nc(NC3CCNCC3)nc12 [Compound 63] |
| > 1000 | > 1000 | > 1000 | < 100 | A (A indicates [fold] > 500) | A (A indicates [fold] > 500) | A (A indicates [fold] > 500) | < 1000 | < 1000 | < 1000 | C=C(F)C(=O)Nc1ccc2c(-c3ccccc3CNc3nc(NC[C@H]4CCNC[C@@H]4O)nc4c(C(C)C)cnn34)nccc2c1 [Compound 64] |
| > 1000 | > 1000 | > 1000 | < 100 | A (A indicates [fold] > 500) | A (A indicates [fold] > 500) | A (A indicates [fold] > 500) | < 1000 | < 1000 | < 1000 | CC(C)c1cnn2c(NCc3ccccc3-c3nccc4cc(NC(=O)C5=CCCC5)ccc34)nc(NC[C@H]3CCNC[C@@H]3O)nc12 [Compound 65] |
| > 1000 | > 1000 | > 1000 | < 100 | A (A indicates [fold] > 500) | A (A indicates [fold] > 500) | A (A indicates [fold] > 500) | < 1000 | < 1000 | < 1000 | C=C(C)C(=O)Nc1ccc2c(-c3ccccc3CNc3nc(NC[C@H]4CCNC[C@@H]4O)nc4c(C(C)C)cnn34)nccc2c1 [Compound 66] |
| > 1000 | > 1000 | > 1000 | < 100 | A (A indicates [fold] > 500) | A (A indicates [fold] > 500) | A (A indicates [fold] > 500) | < 1000 | < 1000 | < 1000 | C=CC(=O)Nc1cccc2ccc(-c3cccc(C)c3CNc3nc(NC[C@H]4CCNC[C@@H]4O)nc4c(C(C)C)cnn34)nc12 [Compound 67] |
| > 1000 | > 1000 | > 1000 | < 100 | A (A indicates [fold] > 500) | A (A indicates [fold] > 500) | A (A indicates [fold] > 500) | < 1000 | < 1000 | < 1000 | C/C=C/C(=O)Nc1ccc2c(-c3ccccc3CNc3nc(NC[C@H]4CCNC[C@@H]4O)nc4c(C(C)C)cnn34)nccc2c1 [Compound 68] |
| > 1000 | > 1000 | > 1000 | < 100 | B (B indicates 50 < [fold] ≤ 500) | B (B indicates 50 < [fold] ≤ 500) | B (B indicates 50 < [fold] ≤ 500) | < 1000 | < 1000 | < 1000 | C/C=C/C(=O)Nc1ccc2c(-c3ccccc3CNc3nc(N4CCNCC4)nc4c(C(C)C)cnn34)nccc2c1 [Compound 71] |
| > 1000 | > 1000 | > 1000 | < 100 | A (A indicates [fold] > 500) | A (A indicates [fold] > 500) | A (A indicates [fold] > 500) | < 1000 | < 1000 | < 1000 | C/C=C/C(=O)Nc1ccc2c(-c3ccccc3CNc3cc(NC[C@H]4CCNC[C@@H]4O)nc4c(C(C)C)cnn34)nccc2c1 [Compound 72] |
| > 1000 | > 1000 | > 1000 | < 100 | A (A indicates [fold] > 500) | A (A indicates [fold] > 500) | B (B indicates 50 < [fold] ≤ 500) | < 1000 | 1000 to 10000 | 1000 to 10000 | C/C=C/C(=O)Nc1cccc2cc(-c3cccc(C)c3CNc3nc(NC[C@H]4CCNC[C@@H]4O)nc4c(C(C)C)cnn34)[nH]c12 [Compound 73] |
| > 1000 | > 1000 | 100 to 1000 | < 100 | B (B indicates 50 < [fold] ≤ 500) | B (B indicates 50 < [fold] ≤ 500) | B (B indicates 50 < [fold] ≤ 500) | < 1000 | < 1000 | < 1000 | C/C=C/C(=O)Nc1ccc2c(ccn2-c2ccccc2CNc2nc(NC[C@H]3CCNC[C@@H]3O)nc3c(C(C)C)cnn23)c1 [Compound 74] |
| > 1000 | > 1000 | > 1000 | 100 to 1000 | B (B indicates 50 < [fold] ≤ 500) | B (B indicates 50 < [fold] ≤ 500) | B (B indicates 50 < [fold] ≤ 500) | < 1000 | < 1000 | < 1000 | CC(C)c1cnn2c(NCc3ccccc3-c3nccc4cc(NC(=O)/C=C/CN(C)C)ccc34)nc(N3CCC(NC(=O)OC(C)(C)C)CC3)nc12 [Compound 75] |
| > 1000 | > 1000 | > 1000 | < 100 | A (A indicates [fold] > 500) | A (A indicates [fold] > 500) | A (A indicates [fold] > 500) | < 1000 | < 1000 | < 1000 | CC(C)c1cnn2c(NCc3ccccc3-c3nccc4cc(NC(=O)/C=C/CN5CCCCC5)ccc34)nc(NC[C@H]3CCNC[C@@H]3O)nc12 [Compound 76] |
